In one series the test system is mice. The experiment in a line: hypnotic activity: loss of righting reflex after intravenous administration in mice. It is filed as in vivo. The note with it: Mus musculus, iv, dose causing loss of righting reflex for minimum 30 seconds in 50% of mice, intravenous injection over 10 seconds; read-out: HD50 (the source's name). The procedure: The hypnotic potency of the α-amino acid phenyl ester derivatives of the invention was determined upon their intravenous administration in mice. The dose required to cause a loss of righting reflex for a minimum period of 30 seconds in 50% of treated mice after intravenous injection over 10 seconds was determined. This dose is termed the HD50 (hypnotic dose50) and is expressed in μmol.kg^−1.

Another series concerns the target GABAA receptors. Description: inhibition of [35S]-TBPS binding to rat whole brain membranes. The note with it: concentration required to inhibit 50% of [35S]-TBPS binding. From the text: γ-Aminobutyric acid (GABA) is the major inhibitory neurotransmitter within the central nervous system and it is probable that compounds potentiating the effects of GABA at GABAA receptors will induce anaesthesia (S. A. Zimmerman, M. V. Jones and N. L. Harrison, J. Pharmacol. Exp. Therap. 1994, 270, 987-991; N. P. Franks and W. R. Lieb, Nature 1994, 367, 607-614). Indeed there is compelling evidence that many hypnotics exert their biological activity via modulation of GABAA receptors, including steroids, barbiturates, benzodiazepines and propofol (D. L. Tanelian, P. Kosek, I. Mody and M. B. Maclver, Anesthesiology 1993, 78, 757-776).
The in vitro effect of the compounds of the invention at GABAA receptors was assessed through determination of their ability to inhibit [^35S]-TBPS ([^35S]-tert-butyl bicyclophosphorothionate) binding to rat whole brain membranes. The concentration of α-amino acid phenyl ester derivative required to inhibit 50% of binding of [^35S]-TBPS was determined. These in vitro experiments were carried out as described in detail by Anderson et al., J.Med.Chem. 1997, 40, 1668-1681.

For orientation: IC50 means the concentration at which inhibition is half-maximal. By melting point is commonly meant the temperature, or range, at which the solid turns liquid.

Molecules are shown by their SMILES. Structures can show the parent of a compound that is named as a salt.

`CCOCCN(CCOCC)[C@H](CC)C(=O)Oc1c(OC)cccc1OC` [Example 7z, R-(+)-2-[N-bis(2-ethoxyethyl)amino]butyric acid, 2,6-dimethoxyphenyl ester hydrochloride (1:1) salt]: in the series on mice, the ED50 turned out to be 19 µmol/kg. In addition, the half-maximal inhibitory concentration (IC50) at GABAA receptors was 18 µM.
Regarding `CCCC(C(=O)Oc1c(OC)cccc1OC)N(CCOC)CCOC` (racemic) [Example 7s, (±)-2-[N-bis(2-methoxyethyl)amino]pentanoic acid, 2,6-dimethoxyphenyl ester hydrochloride (1:1) salt], in the series on mice, the ED50 is 12 µmol/kg. The IC50 at GABAA receptors was 4.2 µM.
Take `CC[C@@H](C(=O)Oc1c(OC)cc(C)cc1OC)N(CCOC)CCOC` [Example 7v, S-(−)-2-[N-bis(2-methoxyethyl)amino]butyric acid, 2,6-dimethoxy-4-methylphenyl ester hydrochloride (1:1) salt]: the ED50 in the series on mice was 35 µmol/kg. For the same compound, the half-maximal inhibitory concentration (IC50) on GABAA receptors stood at 14 µM.
The matching figures for `COCCN(CCOC)C(C)C(=O)Oc1c(OC)cc(C)cc1OC` (racemic) [Example 7e, (±)-2-[N-bis(2-methoxyethyl)amino]propionic acid, 2,6-dimethoxy-4-methylphenyl ester hydrochloride (1:1) salt]: 52 µmol/kg and less than 100 µM.
Regarding `COCCN(CCOC)C(C)C(=O)Oc1c(OC)cccc1OC` (racemic) (as salt: hydrochloride) [Example 7f, (±)-2-[N-bis(2-methoxyethyl)amino]propionic acid, 2,6-dimethoxyphenyl ester hydrochloride (1:1) salt], the melting point was 114 to 116 °C.
With `COCCN(CCOC)C(C(=O)Oc1c(OC)cccc1OC)C(C)C` (racemic) [Example 7u, (±)-3-methyl-2-[N-bis(2-methoxyethyl)amino]butyric acid, 2,6-dimethoxyphenyl ester hydrochloride (1:1) salt], the ED50 with mice was determined as 27 µmol/kg. The half-maximal inhibitory concentration (IC50) on GABAA receptors was 100 µM.
The matching figures for `COCCN(CCOC)[C@H](C)C(=O)Oc1c(OC)cc(C)cc1OC` [Example 7y, R-(+)-2-[N-bis(2-methoxyethyl)amino]propionic acid, 2,6-dimethoxy-4-methylphenyl ester hydrochloride (1:1) salt]: 18 µmol/kg and less than 100 µM.
For `COCCN(CCOC)C(C)C(=O)Oc1c(OC)cccc1OC` (racemic) [Example 7f, (±)-2-[N-bis(2-methoxyethyl)amino]propionic acid, 2,6-dimethoxyphenyl ester hydrochloride (1:1) salt], in the series on mice, the ED50 turned out to be 55 µmol/kg. Moreover, the IC50 on GABAA receptors was less than 100 µM.
The matching figures for `COc1cccc(OC)c1OC(=O)C(C)N1CCOCC1` (stereo not drawn) [Reference, 2,6-dimethoxyphenyl 2-morpholinopropionate, reference compound]: 139 µmol/kg and 766 µM.
On the same counts, the results for `CCC(C(=O)Oc1c(OC(C)C)cccc1OC(C)C)N(CCOC)CCOC` (racemic) [Example 7o, (±)-2-[N-bis(2-methoxyethyl)amino]butyric acid, 2,6-di-(1-methyl)ethoxyphenyl ester hydrochloride (1:1) salt] are 64 µmol/kg and less than 100 µM.
Turning to `COCCN(CCOC)C(C)C(=O)Oc1c(OC)cc(C)cc1OC` (racemic) (as salt: hydrochloride) [Example 7e, (±)-2-[N-bis(2-methoxyethyl)amino]propionic acid, 2,6-dimethoxy-4-methylphenyl ester hydrochloride (1:1) salt], the melting point is 96 to 97 °C.
For `CCC(C(=O)Oc1c(OC)cc(OC)cc1OC)N(CCOC)CCOC` (racemic) [Example 7t, (±)-2-[N-bis(2-methoxyethyl)amino]butyric acid, 2,4,6-trimethoxyphenyl ester hydrochloride (1:1) salt], in the series with mice, the ED50 was determined as 21 µmol/kg. The IC50 on GABAA receptors is 14 µM.
In the case of `CCOCCN(CCOCC)C(C)C(=O)Oc1c(OC)cccc1OC` (racemic) [Example 7d, (±)-2-[N-bis(2-ethoxyethyl)amino]propionic acid, 2,6-dimethoxyphenyl ester hydrochloride (1:1) salt], the ED50 in the series on mice was 68 µmol/kg. For the same compound, the IC50 on GABAA receptors was not above 100 µM.

(Values after patent US6451854B1, “α-amino acid phenyl ester derivatives” (Akzo Nobel N.V., priority 1998, dated 2002).)
